Laboratory results published in patent US7179825B2, “Retinoic acid mimetic anilides” (Janssen Pharmaceutica N.V., priority 1997, dated 2007).

What was measured:
[1] = tested on: metabolism of retinoic acid in human breast cancer cells; experiment: Inhibition of retinoic acid (RA) metabolism (Example C.1); format: cell-based; conditions: MCF-7 human breast cancer cells, 3H-RA as substrate; concentration needed to reduce the amount of metabolites to 50% of the control
How it was run: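 Test compound (in 1% DMSO) added at several concentrations to MCF-7 cell suspensions fed ³H-RA, after RA induction of metabolism one day earlier. Scintillation counting of the separated polar metabolite fraction; IC50 = concentration giving 50% of control metabolite level.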

[2] = tested on: Ovariectomized rats; experiment: Vaginal keratinization test on ovariectomized rats (Example C.2); format: in vivo; conditions: estradiol undecylate induced keratinization, per os once daily on days 1-3, active dose = 50% of rats show complete suppression
How it was run: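 Value is the lowest oral dose (mg/kg) at which half of tested rats show complete suppression of estradiol undecylate-induced vaginal keratinization by histology. Ovariectomized rats received 100 μg/100 g estradiol undecylate s.c., then compound or PEG 200 vehicle p.o. daily for three days; sacrifice one day later.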

Compound | IC50 [1] | LAD (lowest active dose) [2]
CC(C)C(c1ccc(NC(=O)c2ccc3ccccc3n2)cc1)n1ccnc1 (racemic) [Compound 215] | 36 nM | 20.00 mg/kg
CCC(CC)C(c1ccc(NC(=O)Cc2ccc(O)c(OC)c2)cc1)n1ccnc1.O=C(O)C(=O)O (racemic) [Compound 97] | 1.32 nM | 2.50 mg/kg
CC(C(c1ccc(NC(=O)Cc2ccc(O)c(Cl)c2)cc1)n1ccnc1)N(C)C (single isomer, unassigned) [Compound 307] | 0.701 nM | >2.50 mg/kg
COCC(=O)Nc1ccc(C(C(C)C)n2ccnc2)cc1 (centres unmarked) [Compound 212] | 4.07 nM | 20.00 mg/kg
CCC(=O)Nc1ccc(C(C(C)C)n2ccnc2)cc1 (racemic) [Compound 163] | 2.36 nM | 20.00 mg/kg
CCC(CC)C(c1ccc(NC(=O)C(O)c2ccc(Cl)cc2)cc1)n1cncn1 (centres unmarked) [Compound 4] | 2.11 nM | 0.60 mg/kg
Cc1onc(-c2ccccc2)c1C(=O)Nc1ccc(C(C(C)C)n2ccnc2)cc1 (centres unmarked) [Compound 250] | 14.9 nM | >10.00 mg/kg
CC(C(=O)Nc1ccc(C(C(C)C)n2ccnc2)cc1)=C(c1ccccc1)c1cccnc1 (mixture of isomers) [Compound 171] | 85.8 nM | >10.00 mg/kg
CCC(CC)C(c1ccc(NC(=O)c2ccc(OC)c(OC)c2)cc1)n1cncn1 (racemic) [Compound 6] | 1.65 nM | 2.50 mg/kg
CCC(CC)C(c1ccc(NC(=O)Cc2ccc(OC)c(Cl)c2)cc1)n1ccnc1 (racemic) [Compound 116] | 0.678 nM | 2.50 mg/kg
O=C(Cc1ccc(Cl)cc1)Nc1ccc(C(C2CCCCC2)n2ccnc2)cc1 (centres unmarked) [Compound 362] | 14.3 nM | 10.00 mg/kg
CC(C)C(c1ccc(NC(=O)c2ccccn2)cc1)n1ccnc1 (racemic) [Compound 208] | 6.43 nM | >10.00 mg/kg
CC(C)C(c1ccc(NC(=O)C2(c3ccccc3)CCCC2)cc1)n1ccnc1 (centres unmarked) [Compound 191] | > 100 nM | >10.00 mg/kg
CC(C)CCC(c1ccc(NC(=O)Cc2ccc(Cl)cc2)cc1)n1ccnc1 (centres unmarked) [Compound 355] | > 100 nM | >10.00 mg/kg
CC(C)C(c1ccc(NC(=O)c2cccc3nccnc23)cc1)n1ccnc1 (racemic) [Compound 233] | 2.43 nM | >10.00 mg/kg
CCC(CC)C(c1ccc(NC(=O)COc2ccccc2O)cc1)n1ccnc1 (racemic) [Compound 49] | 0.433 nM | 2.50 mg/kg
CC(C)C(c1ccc(NC(=O)CSCc2ccccc2)cc1)n1ccnc1 (racemic) [Compound 210] | 29 nM | 20.00 mg/kg
CCC(CC)C(c1ccc(NC(=O)C2COc3ccccc3C2)cc1)n1ccnc1 (mixture of isomers) [Compound 33] | 1.01 nM | 5.00 mg/kg
CCC(CC)C(c1ccc(NC(=O)Cc2cccc(OC)c2)cc1)n1ccnc1 (racemic) [Compound 90] | 2.36 nM | 2.50 mg/kg
COc1ccc(CC(=O)Nc2ccc(C(C(C)N(C)C)n3cncn3)cc2)cc1Cl (single isomer, unassigned) [Compound 288] | 1.28 nM | >2.50 mg/kg
CCC(CC)C(c1ccc(NC(=O)Cc2ccc(O)c(Cl)c2)cc1)n1cncn1 (racemic) [Compound 79] | 0.0342 nM | 2.50 mg/kg
CC(C(c1ccc(NC(=O)Cc2ccc3c(c2)OCO3)cc1)n1cncn1)N(C)C (single isomer, unassigned) [Compound 330] | 1.82 nM | 2.50 mg/kg
CC(C)C(c1ccc(NC(=O)c2ccncc2)cc1)n1ccnc1 (racemic) [Compound 194] | 7.07 nM | 10.00 mg/kg
COc1ccc(CC(=O)Nc2ccc(C(C(C)N(C)C)n3ccnc3)cc2)cc1C (single isomer, unassigned) [Compound 313] | 0.02 nM | 2.50 mg/kg
CCC(CC)C(c1ccc(NC(=O)Cc2cc(C)ccc2OC)cc1)n1ccnc1 (racemic) [Compound 122] | 2.4 nM | >2.50 mg/kg
CCC(CC)C(c1ccc(NC(=O)CN2CCOCC2)cc1)n1ccnc1 (racemic) [Compound 47] | 1.33 nM | 2.50 mg/kg
CCC(CC)C(c1ccc(NC(=O)C(O)c2ccc(Cl)cc2)cc1)n1cncn1 (single isomer, unassigned) [Compound 21] | 2.89 nM | 5.00 mg/kg
CC(C)C(c1ccc(NC(=O)c2ccc3ccccc3c2)cc1)n1ccnc1 (racemic) [Compound 179] | 36.9 nM | >10.00 mg/kg
COc1cc(CC(=O)Nc2ccc(C(C(C)N(C)C)n3cncn3)cc2)cc(OC)c1OC (single isomer, unassigned) [Compound 292] | 0.137 nM | >2.50 mg/kg

More lines, main results first:

IC50 [1] | Compound | LAD (lowest active dose) [2]
2.58 nM | CCCC(c1ccc(NC(=O)/C(C)=C/c2ccccc2)cc1)n1ccnc1 (racemic) [Compound 467] | >20.00 mg/kg
1.56 nM | CC(C)C(c1ccc(NC(=O)Cc2ccccc2Cl)cc1)n1ccnc1 (centres unmarked) [Compound 664] | 5.00 mg/kg
12.4 nM | CC(=Cc1ccc(Cl)cc1)C(=O)Nc1ccc(C(C(C)C)n2ccnc2)cc1 (racemic) [Compound 579] | 10.00 mg/kg
16.1 nM | CC(C)C(c1ccc(NC(=O)C(c2ccccc2)c2ccccc2)cc1)n1ccnc1 (racemic) [Compound 655] | >10.00 mg/kg
67 nM | C/C(=C\c1ccccc1)C(=O)Nc1ccc(C(C(C)C)(C(C)C)n2ccnc2)cc1 [Compound 751] | 10.00 mg/kg
6.51 nM | COc1cccc(/C=C(\C)C(=O)Nc2ccc(C(C(C)C)n3ccnc3)cc2)c1 (centres unmarked) [Compound 584] | 10.00 mg/kg
2.7 nM | C/C(=C\c1cccc2ccccc12)C(=O)Nc1ccc(C(C(C)C)n2ccnc2)cc1 (racemic) [Compound 593] | >10.00 mg/kg
6.61 nM | C/C(=C\c1ccc(F)c(Br)c1)C(=O)Nc1ccc(C(C(C)C)n2ccnc2)cc1 (racemic) [Compound 608] | >10.00 mg/kg
14.5 nM | Cc1ccc(CC(=O)Nc2ccc(C(C(C)C)n3ccnc3)cc2)cc1 (racemic) [Compound 666] | 2.50 mg/kg
1.88 nM | CCC(c1ccc(NC(=O)C(C)=Cc2ccccc2)cc1)(C(C)C)n1ccnc1 (centres unmarked) [Compound 758] | >5.00 mg/kg
7.45 nM | Cc1cccc(NC(=O)Nc2ccc(C(C(C)C)n3ccnc3)cc2)c1 (racemic) [Compound 736] | >10.00 mg/kg
20.1 nM | C/C(=C\c1ccncc1)C(=O)Nc1ccc(C(C(C)C)n2ccnc2)cc1 (centres unmarked) [Compound 576] | 10.00 mg/kg
8.02 nM | CCC(C(c1ccc(NC(C)=O)cc1)n1cncn1)N(C)C (single isomer, unassigned) [Compound 645] | >5.00 mg/kg
2.75 nM | C/C(=C\Cc1ccccc1)C(=O)Nc1ccc(C(C(C)C)n2ccnc2)cc1 (racemic) [Compound 589] | 10.00 mg/kg
1.95 nM | CCCC(C)C(c1ccc(NC(=O)/C(C)=C/c2ccccc2)cc1)n1ccnc1 (single isomer, unassigned) [Compound 482] | 10.00 mg/kg
6.37 nM | CCC(C(=O)Nc1ccc(C(C(C)C)n2ccnc2)cc1)c1ccccc1 (mixture of isomers) [Compound 660] | >10.00 mg/kg
7.21 nM | C/C(=C\c1ccccc1F)C(=O)Nc1ccc(C(C(C)C)n2ccnc2)cc1 (racemic) [Compound 585] | 10.00 mg/kg
1.78 nM | C/C=C(\C)C(=O)Nc1ccc(C(C(C)C)n2ccnc2)cc1 (racemic) [Compound 574] | 20.00 mg/kg
5.36 nM | CC(C(=O)Nc1ccc(C(C(C)C)n2ccnc2)cc1)c1ccccc1 (centres unmarked) [Compound 657] | >10.00 mg/kg
4.07 nM | CCCCCC(CC)C(c1ccc(NC(=O)C(C)=Cc2ccccc2)cc1)n1ccnc1 (single isomer, unassigned) [Compound 492] | >2.50 mg/kg
1.97 nM | CCC(c1ccc(NC(=O)Cc2ccc(Cl)cc2)cc1)n1ccnc1 (centres unmarked) [Compound 372] | 5.00 mg/kg
0.0567 nM | COc1ccc(CC(=O)Nc2ccc(C(C(C)CN3CCCCC3)n3ccnc3)cc2)cc1OC (single isomer, unassigned) [Compound 389] | >2.50 mg/kg
3.05 nM | CC(C(c1ccc(NC(=O)Cc2ccc(Cl)cc2)cc1)n1ccnc1)N1CCCCC1 (single isomer, unassigned) [Compound 366] | >10.00 mg/kg
126 nM | CC(=Cc1ccccc1)C(=O)Nc1ccc(C(C(C)C)n2cnnc2)cc1 (centres unmarked) [Compound 749] | >20.00 mg/kg
0.0043 nM | CCC(CC)C(c1ccc(NC(=O)Nc2cc(F)ccc2F)cc1)n1cncn1 (racemic) [Compound 712] | 5.00 mg/kg
1.13 nM | CCC(CC)C(c1ccc(NC(=O)Nc2cccc(F)c2)cc1)n1cncn1 (racemic) [Compound 723] | 5.00 mg/kg
